In patent publication US8871728B2, “Non-peptide macrocyclic histone deacetylese (HDAC) inhibitors and methods of making and using thereof” (Georgia Tech Research Corporation, priority 2007, dated 2014):
≈ marks a conversion by molar mass, not a printed value. Like-named read-outs stand apart in the source and are kept apart here.

Assays:
[1] = test system: LNCaP (androgen dependent prostate cancer); assay: Anti-cancer activity screen; type: cell-based
HDAC1 = HDAC1 (Homo sapiens (Human), UniProt Q13547); assay: SAMDI mass spectrometry HDAC inhibition assay; type: biochemical; conditions: for HDAC1 inhibition, symbol: SAMDI
Method: (§1) There is precedence that fluorescently labeled substrates can perturb enzyme activity and the effect of inhibitors. […] Additionally, 3-hydroxypyridine-2-ones are highly colored solids and might lead to false positive signals. Mindful of these facts, a label-free SAMDI (self-assembled monolayers for MALDI) mass spectrometry assay was also used to assess HDAC inhibition.
(§2) The SAMDI technique, wherein self-assembled monolayers (SAM) of alkanethiolates on gold are analyzed by matrix assisted laser desorption/ionization (MALDI) mass spectrometry, has been widely used to characterize many biochemical activities, including the deacetylase enzyme family.

HDAC8 [2] = target: T1, HDAC8 (Homo sapiens (Human), UniProt Q9BY41); assay: SAMDI mass spectrometry HDAC inhibition assay; type: biochemical
Method: as §1, §2

HDAC6 = HDAC6 (Homo sapiens (Human), UniProt Q9UBN7); assay: SAMDI mass spectrometry HDAC inhibition assay; type: biochemical; conditions: for inhibition at 10 µM: read-out: HDAC6 % inhibition
Method: as §1
as §2, with “family. The SAMDI assay was used to measure the inhibition constant (K1) of fragments against HDAC1, HDAC6 and HDAC8 using a previously identified preferred HDAC substrate.” for “family.”

[3] = test system: Jurkat (T cell leukemia overexpressing HDAC8); assay: Anti-cancer activity screen; type: cell-based; conditions: read-out: Jurkat (μm)
[4] = test system: DU 145 (androgen independent prostate cancer); assay: Anti-cancer activity screen; type: cell-based
HDAC8 [5] = target: T1, HDAC8; assay: Fluor de Lys HDAC8 inhibition; type: biochemical; conditions: average of three independent experiments; Table 4; read-out: HDAC 8
NCI-H69 = assay: Cell viability, trypan blue exclusion; type: cell-based; conditions: Homo sapiens
From the text: (§3) Most importantly, the compounds we less toxic to untransformed cell-lines (lung fibroblast and HMEC).
(§4) Most importantly, these compounds are less toxic to untransformed cell-lines (lung fibroblast and HMEC) that we have studied to date.

SKMES 1 = assay: Cell viability, trypan blue exclusion; type: cell-based; conditions: Homo sapiens, SK-MES-1
From the text: as §3, §4

HMEC = assay: Cell viability, trypan blue exclusion; type: cell-based; conditions: Homo sapiens; untransformed cells
From the text: as §3, §4

DU 145 cells = assay: Cell viability, trypan blue exclusion; type: cell-based; conditions: Homo sapiens
From the text: as §3, §4

lung fibroblasts = assay: Cell viability, trypan blue exclusion; type: cell-based; conditions: Fibroblast; untransformed cells
From the text: as §3, §4

[6] = test system: HeLa nuclear extract HDAC1/2; assay: Fluor de Lys HDAC inhibition, HeLa nuclear extract; type: biochemical, human; conditions: HeLa nuclear extract; average of three independent experiments; Table 4; read-out: HDAC ½
From the text: Fluor de Lys™ is a fluorescence based HDAC activity assay comprising a combination of fluorogenic Histone deAcetylase Lysyl substrate and a developer. The kit is a highly sensitive and convenient alternative to radiolabeled, acetylated histones or peptide/HPLC methods for the assay of histone deacetylases. This assay is based on the ability of HeLa nuclear extract, which is enriched in HDAC activity, to mediate the deacetylation of the acetylated lysine side chain of the Fluor de Lys substrate. The assay procedure requires two steps. First, incubation of the HeLa nuclear extract with the Fluor de Lys substrate results in substrate deacetylation and thus sensitizes it to the second step. In the second step, treatment of the deacetylated substrate with the Fluor de Lys developer produces a fluorophore. The substrate-developer reaction, under normal circumstances goes to completion in less than 1 min at 25° C. The kit used was the Fluorimetric Assay/Drug Discovery Kit—AK-500 Manual Fluorescent Assay System available from BIOMOL® International, Plymouth Meeting, Pa.
Each IC50 value was obtained by averaging three independent experiments.

[7] = test system: promastigote stage of L. donovani; assay: Antileishmanial Alamar blue fluorometric assay; type: cell-based; conditions: Leishmania donovani, read-out: Antileshmanial activity IC90 (μg/ml)
Method: (§5) The compounds described herein were also evaluated for parasitic activity against Plasmodium falciparum and Leismania donovani. P. falciparum and L. donovani are the causative parasites of malaria and leishmaniasis, two human diseases which constitute a serious threat to public health in tropical and sub-tropical countries. Antimalarial activity was evaluated in vitro using chloroquine-sensitive (D6, Sierra Leone) and chloroquine-resistant (W2, Indochina) strains of P. falciparum. Antileishmanial activity was evaluated in vitro against the promastigote stage of L. donovani.
(§6) Plasmodium growth inhibition was determined by a parasite lactate dehydrogenase assay using Malstat reagent. Inhibition of viability of the promastigote stage of L. donovani was determined using standard Alamar blue assay, modified to a fluorometric assay.
as §5, with “Macrocyclic histone deacetylase inhibitors” for “The compounds described herein”, “were” for “were also”
as §6

[8] = test system: Plasmodium falciparum (D6 clone), chloroquine-sensitive; assay: Plasmodium growth inhibition, parasite lactate dehydrogenase assay (Malstat); type: cell-based; conditions: selective toxicity index, Vero versus D6
Method: as §5, §6
as §5, with “Macrocyclic histone deacetylase inhibitors” for “The compounds described herein”, “were” for “were also”
as §6

[9] = Table 14, read-out: HDAC 8 (nm)
[10] = Homo sapiens, DU-145, calculated IC50 above 20 μM (highest concentration tested) also reported as >20
[11] = calculated IC50 above 20 μM (highest concentration tested) also reported as >20
[12] = Table 14, read-out: HDAC 6 (nm)

Sequence of HDAC1 (Q13547 whole entry): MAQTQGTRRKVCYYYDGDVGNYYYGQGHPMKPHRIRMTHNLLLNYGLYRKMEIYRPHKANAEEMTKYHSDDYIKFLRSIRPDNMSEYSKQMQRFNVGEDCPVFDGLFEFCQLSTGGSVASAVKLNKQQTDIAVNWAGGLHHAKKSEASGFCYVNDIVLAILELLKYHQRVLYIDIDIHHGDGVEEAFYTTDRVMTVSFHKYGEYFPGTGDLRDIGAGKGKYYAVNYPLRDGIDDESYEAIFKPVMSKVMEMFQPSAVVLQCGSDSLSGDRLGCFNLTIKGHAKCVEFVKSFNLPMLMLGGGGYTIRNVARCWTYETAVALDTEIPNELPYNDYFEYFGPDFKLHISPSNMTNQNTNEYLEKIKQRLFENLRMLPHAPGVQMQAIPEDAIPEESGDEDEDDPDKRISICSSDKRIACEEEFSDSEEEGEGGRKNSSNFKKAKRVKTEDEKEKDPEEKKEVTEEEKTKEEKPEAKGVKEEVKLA
T1 sequence (Q9BY41 whole entry): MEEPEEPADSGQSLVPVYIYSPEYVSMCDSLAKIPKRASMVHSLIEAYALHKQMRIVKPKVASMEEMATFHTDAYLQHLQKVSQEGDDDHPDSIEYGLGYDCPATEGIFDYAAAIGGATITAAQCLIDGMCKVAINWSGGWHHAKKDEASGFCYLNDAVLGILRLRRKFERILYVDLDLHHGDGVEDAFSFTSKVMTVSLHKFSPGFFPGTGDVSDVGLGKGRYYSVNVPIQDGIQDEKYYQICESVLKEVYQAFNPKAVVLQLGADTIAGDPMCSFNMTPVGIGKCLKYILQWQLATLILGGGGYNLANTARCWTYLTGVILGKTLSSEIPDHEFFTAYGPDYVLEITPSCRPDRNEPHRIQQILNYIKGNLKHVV
Sequence of HDAC6 (Q9UBN7 whole entry): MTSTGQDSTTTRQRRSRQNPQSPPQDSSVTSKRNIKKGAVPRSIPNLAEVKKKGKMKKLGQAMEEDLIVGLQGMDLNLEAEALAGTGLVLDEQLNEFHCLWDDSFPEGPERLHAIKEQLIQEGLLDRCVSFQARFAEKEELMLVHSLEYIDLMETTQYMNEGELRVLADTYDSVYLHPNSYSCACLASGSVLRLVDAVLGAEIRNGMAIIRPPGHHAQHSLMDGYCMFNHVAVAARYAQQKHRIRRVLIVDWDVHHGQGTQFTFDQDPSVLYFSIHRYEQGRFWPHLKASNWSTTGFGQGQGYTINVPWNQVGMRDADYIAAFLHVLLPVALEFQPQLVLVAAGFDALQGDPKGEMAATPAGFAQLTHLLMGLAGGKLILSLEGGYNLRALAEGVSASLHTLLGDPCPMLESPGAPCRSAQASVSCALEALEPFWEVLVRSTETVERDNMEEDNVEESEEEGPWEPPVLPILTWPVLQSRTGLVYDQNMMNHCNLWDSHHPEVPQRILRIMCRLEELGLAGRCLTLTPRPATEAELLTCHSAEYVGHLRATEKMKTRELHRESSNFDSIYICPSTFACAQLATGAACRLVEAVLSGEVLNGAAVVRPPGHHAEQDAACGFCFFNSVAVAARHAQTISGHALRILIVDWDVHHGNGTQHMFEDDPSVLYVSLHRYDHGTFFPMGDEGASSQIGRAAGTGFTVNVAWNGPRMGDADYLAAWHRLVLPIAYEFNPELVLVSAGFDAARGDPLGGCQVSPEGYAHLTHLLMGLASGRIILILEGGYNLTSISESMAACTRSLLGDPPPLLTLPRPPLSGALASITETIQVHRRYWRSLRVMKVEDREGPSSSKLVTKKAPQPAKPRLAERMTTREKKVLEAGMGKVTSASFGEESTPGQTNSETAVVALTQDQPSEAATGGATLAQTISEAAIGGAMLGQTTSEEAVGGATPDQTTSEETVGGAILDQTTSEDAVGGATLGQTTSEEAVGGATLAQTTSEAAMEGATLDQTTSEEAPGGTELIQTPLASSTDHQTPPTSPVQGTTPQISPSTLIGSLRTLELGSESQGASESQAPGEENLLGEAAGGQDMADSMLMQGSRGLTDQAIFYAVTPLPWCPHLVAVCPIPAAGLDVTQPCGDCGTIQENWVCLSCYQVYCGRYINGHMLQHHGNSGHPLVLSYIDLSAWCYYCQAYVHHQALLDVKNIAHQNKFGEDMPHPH

With CN(C)c1ccc(-c2ccc(Cn3cccc(O)c3=S)cc2)cc1 [Compound 149g, 1-(4-Dimethylamino-(1,1′-biphenylmethyl))-3-hydroxyoxypyridine-2-thione] as the molecule, how does the IC50 ([1]; Homo sapiens, LNCaP) read?
Its IC50 is 16.2 ± 1.11 µM.

And the “HDAC1 inhibition, symbol” value (HDAC1)?
Its value is “NI (No significant Inhibition (below 20% Inhibition))”.

What about the IC50 (HDAC8 [2]; [9]) of the same molecule?
Its IC50 is 2.86 ± 0.944 µM.

What about the “HDAC6 inhibition, symbol” value (HDAC6; SAMDI) of the same molecule?
The value was “NI (No significant Inhibition (below 20% Inhibition))”.

What about the IC50 ([3]; Homo sapiens, Jurkat) of the same molecule?
The IC50 was 10.6 ± 0.97 µM.

And the IC50 [4, 10]?
Its IC50 is over 20 µM.

What about the IC50 [4, 11] of the same molecule?
The IC50 was 22.8 ± 3.8 µM.

How did the IC50 (HDAC8 [5]) turn out when CC[C@H]1OC(=O)[C@H](C)[C@@H](O[C@H]2C[C@@](C)(OC)[C@@H](O)[C@H](C)O2)[C@H](C)[C@@H](O[C@@H]2O[C@H](C)C[C@H](N(C)Cc3ccc(-c4cn(CCCCCCC(=O)NO)nn4)cc3)[C@H]2O)[C@](C)(OC)C[C@@H](C)C(=O)[C@H](C)[C@@H](O)[C@]1(C)O [Compound 25, Clarithromycin-N-phenyltriazolylheptahydroxamic acid] was run?
The IC50 was 1.89 µM.

And the EC50 (NCI-H69)?
The EC50 was 1.45 µM.

And the EC50 (SKMES 1)?
The EC50 was 1.33 µM.

And the EC50 (HMEC)?
The EC50 was over 10 µM.

And the EC50 (DU 145 cells)?
The EC50 was 1.12 µM.

And the EC50 (lung fibroblasts)?
The EC50 was over 10 µM.

And the IC50 [6]?
Its IC50 is 0.00409 µM.

For O=C(CCCCCCC(=O)Nc1ccccc1)NO [SAHA, suberoylanilide hydroxamic acid, reference compound], which IC90 [7] is on record?
The IC90 was 50 µg/mL (≈ 189 µM).

And the “S.I. D6” value [8]?
The value was 4.8.

And the inhibition at 10 µM (HDAC6)?
The inhibition at 10 µM was 95%.

Oc1cccn(CCCCCn2cc(-c3ccccc3)nn2)c1=S [Compound 162d, 1-Phenyltriazolylpentyl-3-hydroxypyridine-2-thione] was tested. Which IC50 [1] did it give?
Its IC50 is 5.43 ± 0.47 µM.

What about the “HDAC1 inhibition, symbol” value (HDAC1) of the same molecule?
Its value is “NI (No significant Inhibition (below 20% Inhibition))”.

And the HDAC1 % inhibition (HDAC1; at 10 μM, given if the IC50 was above 10 μM)?
The HDAC1 % inhibition was 30%.

What about the “HDAC8 activity difference between 162d and 162e” value (HDAC8 [2]; SAMDI) of the same molecule?
Its value is about 7 fold.

And the IC50 (HDAC8 [2]; SAMDI, read-out: HDAC8 IC50)?
The IC50 was 0.917 µM.

What about the IC50 (HDAC8 [2]; [9]) of the same molecule?
The IC50 was 0.917 ± 0.139 µM.

What about the IC50 (HDAC6; SAMDI, read-out: HDAC6 IC50) of the same molecule?
The IC50 was 0.911 µM.

And the IC50 (HDAC6; [12])?
The IC50 was 0.911 ± 0.173 µM.

What about the IC50 [3] of the same molecule?
The IC50 was 3.27 ± 0.6 µM.

And the IC50 [4]?
The IC50 was 9.33 ± 0.96 µM.

For N#Cc1ccccc1-c1ccc(Cn2cccc(O)c2=S)cc1 [Compound 149c, 1-(2-Cyano-(1,1′-biphenylmethyl))-3-hydroxyoxypyridine-2-thione], which IC50 ([1]; Homo sapiens, LNCaP) is on record?
Its IC50 is 14.7 ± 0.84 µM.

What about the “HDAC1 inhibition, symbol” value (HDAC1) of the same molecule?
The value was “NI (No significant Inhibition (below 20% Inhibition))”.

What about the IC50 (HDAC8 [2]; SAMDI, read-out: HDAC8 IC50) of the same molecule?
Its IC50 is 1.91 ± 0.771 µM.

And the IC50 (HDAC8 [2]; SAMDI, read-out: HDAC8 activity (IC50))?
The IC50 was about 2 µM.

And the IC50 (HDAC8 [2]; [9])?
The IC50 was 1.91 ± 0.771 µM.

What about the IC50 (HDAC6; SAMDI, read-out: HDAC6 IC50) of the same molecule?
Its IC50 is 0.372 ± 0.035 µM.

And the IC50 ([3]; Homo sapiens, Jurkat)?
The IC50 was 8.95 ± 0.69 µM.

And the IC50 [4, 10]?
Its IC50 is 30 ± 5.85 µM.

And the IC50 [4, 11]?
The IC50 was over 20 µM.

Oc1cccn(Cc2cn(-c3ccccc3)nn2)c1=S [Compound 154a, 1-Phenyltriazolylmethyl-3-hydroxypyridine-2-thione] was tested. Which IC50 ([1]; Homo sapiens, LNCaP) did it give?
The IC50 was 13.1 ± 1.51 µM.

And the inhibition at 10 µM (HDAC6)?
Its inhibition at 10 µM is 41%.

What about the IC50 ([3]; Homo sapiens, Jurkat) of the same molecule?
The IC50 was 4.68 ± 0.34 µM.

And the IC50 [4, 10]?
The IC50 was 24 ± 7.47 µM.

And the IC50 [4, 11]?
The IC50 was over 20 µM.

With Cc1ccccc1-c1ccc(Cn2cccc(O)c2=S)cc1 [Compound 149f, 1-(2-Methyl-(1,1′-biphenylmethyl))-3-hydroxyoxypyridine-2-thione] as the molecule, how does the IC50 ([1]; Homo sapiens, LNCaP) read?
The IC50 was 7.75 ± 0.73 µM.

What about the “HDAC1 inhibition, symbol” value (HDAC1) of the same molecule?
The value was “NI (No significant Inhibition (below 20% Inhibition))”.

And the IC50 (HDAC6; [12])?
Its IC50 is 0.306 ± 0.069 µM.

And the IC50 [4, 10]?
Its IC50 is 13.6 ± 2.91 µM.
